Source: the supplement of paper PMC4862054

What was measured:
[1] = test system: Hs578T; experiment: normalised viability (% of control), CellTiter-Blue; higher = more viable cells (100 = DMSO, 0 = benzethonium chloride kill control); conditions: 0.25 nM; incubation time: 72 h
Description: (§1)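 DSRT, CellTiter-Blue viability, 72 h incubation. Signal is normalised to DMSO and benzethonium chloride controls. Value is the normalised response at dose 1.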

[2] = test system: MDA-MB-436; experiment: as above; conditions: 0.25 nM; incubation time: 72 h
Description: as §1

[3] = test system: CAL-120; experiment: as above; conditions: 0.25 nM; incubation time: 72 h
Description: as §1

[4] = test system: BT-549; experiment: as above; conditions: 0.25 nM; incubation time: 72 h
Description: as §1

[5] = test system: CAL-85-1; experiment: as above; conditions: 0.25 nM; incubation time: 72 h
Description: as §1

[6] = test system: MDA-MB-231; experiment: as above; conditions: 0.25 nM; incubation time: 72 h
Description: as §1

[7] = test system: CAL-148; experiment: as above; conditions: 0.25 nM; incubation time: 72 h
Description: as §1

[8] = test system: MFM-223; experiment: as above; conditions: 0.25 nM; incubation time: 72 h
Description: as §1

[9] = test system: MDA-MB-453; experiment: as above; conditions: 0.25 nM; incubation time: 72 h
Description: as §1

[10] = test system: MDA-MB-468; experiment: as above; conditions: 0.25 nM; incubation time: 72 h
Description: as §1

[11] = test system: HCC1599; experiment: as above; conditions: 0.25 nM; incubation time: 72 h
Description: as §1

[12] = test system: HCC1937; experiment: as above; conditions: 0.25 nM; incubation time: 72 h
Description: as §1

[13] = test system: BT-474; experiment: as above; conditions: 0.25 nM; incubation time: 72 h
Description: as §1

[14] = test system: DU-4475; experiment: as above; conditions: 0.25 nM; incubation time: 72 h
Description: as §1

[15] = test system: HDQ-P1; experiment: as above; conditions: 0.25 nM; incubation time: 72 h
Description: as §1

[16] = test system: CAL-51; experiment: as above; conditions: 0.25 nM; incubation time: 72 h
Description: as §1

[17] = test system: SK-BR-3; experiment: as above; conditions: 0.25 nM; incubation time: 72 h
Description: as §1

[18] = test system: HCC1143; experiment: as above; conditions: 0.25 nM; incubation time: 72 h
Description: as §1

[19] = test system: Hs578T; experiment: normalised viability (% of control), CellTiter-Blue; higher = more viable cells (about 100 = DMSO control); conditions: 25 nM; incubation time: 72 h
Description: (§2)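 DSRT, CellTiter-Blue viability, 72 h incubation. Signal is normalised to DMSO and benzethonium chloride controls. Value is the normalised response at dose 3.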

[20] = test system: MDA-MB-436; experiment: as above; conditions: 25 nM; incubation time: 72 h
Description: as §2

[21] = test system: BT-549; experiment: as above; conditions: 25 nM; incubation time: 72 h
Description: as §2

[22] = test system: CAL-85-1; experiment: as above; conditions: 2.5 nM; incubation time: 72 h
Description: as §2

[23] = test system: MDA-MB-231; experiment: as above; conditions: 25 nM; incubation time: 72 h
Description: as §2

[24] = test system: CAL-148; experiment: as above; conditions: 2.5 nM; incubation time: 72 h
Description: as §2

[25] = test system: MFM-223; experiment: as above; conditions: 25 nM; incubation time: 72 h
Description: as §2

[26] = test system: MDA-MB-468; experiment: as above; conditions: 25 nM; incubation time: 72 h
Description: as §2

[27] = test system: HCC1599; experiment: as above; conditions: 25 nM; incubation time: 72 h
Description: as §2

[28] = test system: HCC1937; experiment: as above; conditions: 25 nM; incubation time: 72 h
Description: as §2

[29] = test system: BT-474; experiment: as above; conditions: 25 nM; incubation time: 72 h
Description: as §2

[30] = test system: HDQ-P1; experiment: as above; conditions: 2.5 nM; incubation time: 72 h
Description: as §2

[31] = test system: CAL-51; experiment: as above; conditions: 2.5 nM; incubation time: 72 h
Description: as §2

[32] = test system: SK-BR-3; experiment: as above; conditions: 25 nM; incubation time: 72 h
Description: as §2

With c1cc(CN2CCCNCCNCCCNCC2)ccc1CN1CCCNCCNCCCNCC1 [Plerixafor] the normalised viability [1] was 104%, the normalised viability [2] was 110% and the normalised viability [3] was 90%. For the same compound, the normalised viability [4] was 86.8%, the normalised viability [5] was 84.2% and the normalised viability [6] was 93.8%. For the same compound, the normalised viability [7] was 87.3%, the normalised viability [8] was 99% and the normalised viability [9] was 129%. The normalised viability [10] was 96.5%, the normalised viability [11] was 107% and the normalised viability [12] was 82.5%. The normalised viability [13] was 84%, the normalised viability [14] was 105% and the normalised viability [15] was 104%. For the same compound, the normalised viability [16] was 103%, the normalised viability [17] was 91.5% and the normalised viability [18] was 90.9%. It also gave a normalised viability [19] of 93.4%, a normalised viability [20] of 95.7% and a normalised viability [21] of 117%. For the same compound, the normalised viability [22] was 96.9%, the normalised viability [23] was 93.9% and the normalised viability [24] was 92.3%. It also gave a normalised viability [25] of 92.6%, a normalised viability [26] of 98.5% and a normalised viability [27] of 101%. For the same compound, the normalised viability [28] was 102%, the normalised viability [29] was 108% and the normalised viability [30] was 112%. The normalised viability [31] was 100% and the normalised viability [32] was 84.3%.
